Earlier results on one compound are cited in patent US20240409577A1, “FORMATION OF AMIDINES AND INTRAMOLECULAR REACTION THEREOF” (priority 2023, published 2024).

The conditions of the data set: acid used for the imidazolone transformation.

On to `OC(C(F)(F)F)C(F)(F)F` [HFIP, hexafluoroisopropanol], for which the pKa (in general, the pH at which an ionisable group is half protonated) is recorded as 8.3.
